Test results reported in paper PMC8812798 (Emerging Microbes & Infections, 2021).
Like-named read-outs stand apart in the source and are kept apart here. Where a SMILES comes first, the peptide text is derived from it. The star is where a group is joined. Succinyl(4-O-cholesteryl) = CC(C)CCC[C@@H](C)[C@H]1CC[C@H]2[C@@H]3CC=C4C[C@@H](OC(=O)CCC(=O)*)CC[C@]4(C)[C@H]3CC[C@]12C

Experiments:
HIV-1 = test: Inhibition of HIV-1 by HIV-1 fusion inhibitors (Table S1); type: cell-based; settings: Table S1, in words only
SIV239 pseudovirus = settings: 48 h
SIVPBJ pseudovirus = settings: 48 h
SARS-CoV-2 = test: Inhibition of SARS-CoV-2 by HIV-1 fusion inhibitors (Table S1); type: cell-based; settings: at a concentration as high as 25 or 50 μM (Table S1)
H7N9 pseudovirus = settings: 48 h
HIV-2ST = settings: read-out: IC50, inhibition of HIV-2ST infection; Fig 2B; replication-competent virus, TZM-bl cells, 48 h; mean IC50, repeated three times
RSV pseudovirus = settings: 48 h
H5N1 pseudovirus = settings: 48 h
[1] = system: gp41 HR1-derived peptides (N42, N36, and N38); test: Size-exclusion chromatography of EK1 with gp41 HR1-derived peptides; type: binding, HIV-1; settings: molar ratio 1:1, 0.2 mM, 0.05M sodium phosphate pH 7.2, 37°C 30 min; Superdex-75
Protocol: The binding between EK1 peptide and a target mimic peptide derived from the HR1 sequence of gp41 was analysed by size-exclusion chromatography. In brief, EK1 was mixed with N42, N36 or N38 (molar ratio of 1:1) in 0.05M sodium phosphate (pH 7.2) at a final concentration of 0.2 mM, and then incubated at 37°C for 30 min. The mixture was applied to the Superdex-75 10/300 GL (GE Healthcare, Piscataway, NJ, USA) equilibrated with 50 mM sodium phosphate and eluted at 0.8 ml/min, and fractions were monitored at 214 nm.

HIV-2ROD = settings: read-out: IC50, inhibition of HIV-2ROD infection; Fig 2A; replication-competent virus, TZM-bl cells, 48 h; mean IC50, repeated three times
HIV-1NL4-3 Env = type: cell-based; settings: Table 2; HIV-1NL4-3 Env-mediated cell–cell fusion; triplicate, repeated three times; read-out: IC50 ± SD, Env cell fusion
primary HIV-1 Envs = test: DSP-based cell–cell fusion assay, panel of primary HIV-1 Envs
[2] = HIV-1 Env 246_F3_C10_2, subtype A/C, triplicate, repeated three times, read-out: Cell fusion (IC50±SD)
[3] = HIV-1 Env 398-F1_F6_20, subtype A, triplicate, repeated three times, read-out: Cell fusion (IC50±SD)
[4] = HIV-1 Env BJOX002000.03.2, subtype B/C, triplicate, repeated three times, read-out: Cell fusion (IC50±SD)
[5] = HIV-1 Env CE1176_A3, subtype C, triplicate, repeated three times, read-out: Cell fusion (IC50±SD)
[6] = HIV-1 Env CE703010217_B6, subtype C, triplicate, repeated three times, read-out: Cell fusion (IC50±SD)
[7] = HIV-1 Env CH119.10, subtype B/C, triplicate, repeated three times, read-out: Cell fusion (IC50±SD)
[8] = HIV-1 Env CNE8, subtype A/E, triplicate, repeated three times, read-out: Cell fusion (IC50±SD)
[9] = HIV-1 Env CNE55, subtype A/E, triplicate, repeated three times, read-out: Cell fusion (IC50±SD)
[10] = HIV-1 Env HIV_25710-2.43, subtype C, triplicate, repeated three times, read-out: Cell fusion (IC50±SD)
[11] = HIV-1 Env SF162, subtype B, triplicate, repeated three times, read-out: Cell fusion (IC50±SD)
[12] = HIV-1 Env TRO.11, subtype B, triplicate, repeated three times, read-out: Cell fusion (IC50±SD)
[13] = HIV-1 Env X1632-S2-B10, subtype G, triplicate, repeated three times, read-out: Cell fusion (IC50±SD)
[14] = HIV-1 Env X2278_C2_B6, subtype B, triplicate, repeated three times, read-out: Cell fusion (IC50±SD)
[15] = Mean over 14 primary HIV-1 Envs of Table 1, read-out: Cell fusion, mean IC50 over the panel

Row | Compound | Inhibition of HIV-1 (HIV-1) | IC50 (SIV239 pseudovirus) [µM] | IC50 (SIVPBJ pseudovirus) [µM] | Inhibitory activity against SARS-CoV-2 (SARS-CoV-2) | IC50 (H7N9 pseudovirus) [µM] | IC50 (RSV pseudovirus) [µM] | IC50 (H5N1 pseudovirus) [µM] | Cytotoxicity on TZM-bl cells (TZM-bl cells) | IC50 (primary HIV-1 Envs; [2]) [µM] | IC50 (primary HIV-1 Envs; [3]) [µM] | IC50 (primary HIV-1 Envs; [4]) [µM] | IC50 (primary HIV-1 Envs; [5]) [µM] | IC50 (primary HIV-1 Envs; [6]) [µM] | IC50 (primary HIV-1 Envs; [7]) [µM] | IC50 (primary HIV-1 Envs; [8]) [µM] | IC50 (primary HIV-1 Envs; [9]) [µM] | IC50 (primary HIV-1 Envs; [10]) [µM] | IC50 (primary HIV-1 Envs; [11]) [µM] | IC50 (primary HIV-1 Envs; [12]) [µM] | Cytotoxicity on HEK293T cells (HEK293T cells) | also measured
1 | Enfuvirtide | potently inhibited HIV-1 | 0.39 | 0.48 | none was found to have inhibitory activity | – | – | – | – | – | – | – | – | – | – | – | – | – | – | – | – | –
2 | sifuvirtide | potently inhibited HIV-1 | – | – | none was found to have inhibitory activity | – | – | – | – | – | – | – | – | – | – | – | – | – | – | – | – | –
3 | CC[C@H](C)[C@H](NC(=O)[C@H](C)NC(=O)[C@H](CCC(=O)O)NC(=O)[C@H](CCC(=O)O)NC(=O)[C@H](CC(C)C)NC(=O)[C@H](CCCCN)NC(=O)[C@H](CCCCN)NC(=O)[C@H](CCSC)NC(=O)[C@H](CCC(=O)O)NC(=O)[C@H](Cc1ccc(O)cc1)NC(=O)[C@H](CCC(=O)O)NC(=O)[C@H](CC(C)C)NC(=O)[C@H](CC(=O)O)NC(=O)[C@H](CC(C)C)NC(=O)[C@H](Cc1ccccc1)NC(=O)[C@@H](NC(=O)[C@@H](NC(=O)[C@H](CC(N)=O)NC(=O)[C@@H](NC(=O)[C@H](CCC(N)=O)NC(=O)[C@H](CC(=O)O)NC(=O)[C@H](CC(C)C)NC(=O)[C@H](CO)NC(C)=O)[C@@H](C)CC)C(C)C)[C@@H](C)O)C(=O)N[C@@H](CCCCN)C(=O)N[C@@H](CCCCN)C(=O)N[C@@H](CC(C)C)C(=O)N[C@@H](CCC(=O)O)C(=O)N[C@@H](CCC(=O)O)C(=O)N[C@@H](CO)C(=O)N[C@@H](Cc1ccc(O)cc1)C(=O)N[C@H](C(=O)N[C@@H](CC(=O)O)C(=O)N[C@@H](CC(C)C)C(=O)N[C@@H](CCCCN)C(=O)N[C@@H](CCC(=O)O)C(=O)N[C@@H](CC(C)C)C(N)=O)[C@@H](C)CC [EK1] | – | > 12.5 | > 12.5 | – | > 25 | > 25 | > 25 | none of them at a concentration of 10 or 25 μM showed significant cytotoxic effects | > 5 | > 5 | > 5 | > 5 | > 5 | > 5 | > 5 | > 5 | > 5 | > 5 | > 5 | none of them at a concentration of 10 or 25 μM showed significant cytotoxic effects | IC50 (HIV-2ST): > 12.5 µM; Complex formation with gp41 HR1-derived peptides N42, N36, N38 by size-exclusion chromatography [1]: could form peptide complexes; IC50 (HIV-2ROD): > 12.5 µM; IC50 (HIV-1NL4-3 Env): > 5 µM; IC50 (primary HIV-1 Envs; HIV-1 Env JRFL, subtype B, triplicate, repeated three times, read-out: Cell fusion (IC50±SD)): > 5 µM; IC50 (primary HIV-1 Envs; [13]): > 5 µM; IC50 (primary HIV-1 Envs; [14]): > 5 µM; IC50 (primary HIV-1 Envs; [15]): > 5 µM
4 | SLDQINVTFLDLEYEMKKLEEAIKKLEESYIDLKEL-GSGSG-PEG4-C(Chol) [EK1C4] | – | – | – | – | – | – | – | none of them at a concentration of 10 or 25 μM showed significant cytotoxic effects | – | – | – | – | – | – | – | – | – | – | – | none of them at a concentration of 10 or 25 μM showed significant cytotoxic effects | –
5 | albuvirtide | potently inhibited HIV-1 | – | – | none was found to have inhibitory activity | – | – | – | – | – | – | – | – | – | – | – | – | – | – | – | – | –
6 | CC[C@H](C)[C@H](NC(=O)[C@H](C)NC(=O)[C@H](CCC(=O)O)NC(=O)[C@H](CCC(=O)O)NC(=O)[C@H](CC(C)C)NC(=O)[C@H](CCCCN)NC(=O)[C@H](CCCCN)NC(=O)[C@H](CCSC)NC(=O)[C@H](CCC(=O)O)NC(=O)[C@H](Cc1ccc(O)cc1)NC(=O)[C@H](CCC(=O)O)NC(=O)[C@H](CC(C)C)NC(=O)[C@H](CC(=O)O)NC(=O)[C@H](CC(C)C)NC(=O)[C@H](Cc1ccccc1)NC(=O)[C@@H](NC(=O)[C@@H](NC(=O)[C@H](CC(N)=O)NC(=O)[C@@H](NC(=O)[C@H](CCC(N)=O)NC(=O)[C@H](CC(=O)O)NC(=O)[C@H](CC(C)C)NC(=O)[C@H](CO)NC(C)=O)[C@@H](C)CC)C(C)C)[C@@H](C)O)C(=O)N[C@@H](CCCCN)C(=O)N[C@@H](CCCCN)C(=O)N[C@@H](CC(C)C)C(=O)N[C@@H](CCC(=O)O)C(=O)N[C@@H](CCC(=O)O)C(=O)N[C@@H](CO)C(=O)N[C@@H](Cc1ccc(O)cc1)C(=O)N[C@H](C(=O)N[C@@H](CC(=O)O)C(=O)N[C@@H](CC(C)C)C(=O)N[C@@H](CCCCN)C(=O)N[C@@H](CCC(=O)O)C(=O)N[C@@H](CC(C)C)C(=O)N[C@@H](CCCCNC(=O)CCC(=O)O[C@H]1CC[C@@]2(C)C(=CC[C@H]3[C@@H]4CC[C@H]([C@H](C)CCCC(C)C)[C@@]4(C)CC[C@@H]32)C1)C(N)=O)[C@@H](C)CC [EK1V1] (Ac-SLDQINVTFLDLEYEMKKLEEAIKKLEESYIDLKELK(Succinyl(4-O-cholesteryl))-NH2; N-terminus and C-terminus assumed) | – | 1.43 | 0.31 | – | > 25 | > 25 | > 25 | none of them at a concentration of 10 or 25 μM showed significant cytotoxic effects | 0.05 ± 0.01 | 0.17 ± 0.01 | 0.07 ± 0.01 | 0.35 ± 0.1 | 0.04 ± 0.01 | 0.02 ± 0.004 | 0.49 ± 0.09 | 0.13 ± 0.03 | 0.17 ± 0.03 | 0.05 ± 0.01 | 0.68 ± 0.17 | none of them at a concentration of 10 or 25 μM showed significant cytotoxic effects | IC50 (primary HIV-1 Envs; [13]): 0.04 ± 0.01 µM; IC50 (primary HIV-1 Envs; [14]): 0.05 ± 0.004 µM; IC50 (primary HIV-1 Envs; [15]): 0.17 µM; n-fold (HIV-1NL4-3 pseudovirus): 1; IC50 (HIV-1NL4-3 pseudovirus; 1NL4-3 pseudovirus, 48 h): 0.0398 µM; IC50 (HIV-1NL4-3 pseudovirus; Table 3, […], mean ± SD, triplicate, repeated three times): 0.04 ± 0.002 µM
